Source: patent US7122570B2, “Tetrahydrocarbazol derivatives as ligands for G-protein-coupled receptors (GPCR)” (Zentaris AG, priority 2001, dated 2006)

Key:
GnRH receptor [1] = biological target: T1, GnRH receptor (Homo sapiens, UniProt P30968); assay: Functional reporter gene assay (luciferase) in LTK cells carrying GnRH receptors, triptorelin stimulation; type: cell-based; set-up: expressed in transfected cells; host or cells: LTK cells (ATCC No. CCL-1.3), stably transfected, with CRE / CMV minimal promoter luciferase reporter; settings: inhibition of triptorelin/Rolipram-stimulated luciferase reporter
T1 sequence (P30968 1-328): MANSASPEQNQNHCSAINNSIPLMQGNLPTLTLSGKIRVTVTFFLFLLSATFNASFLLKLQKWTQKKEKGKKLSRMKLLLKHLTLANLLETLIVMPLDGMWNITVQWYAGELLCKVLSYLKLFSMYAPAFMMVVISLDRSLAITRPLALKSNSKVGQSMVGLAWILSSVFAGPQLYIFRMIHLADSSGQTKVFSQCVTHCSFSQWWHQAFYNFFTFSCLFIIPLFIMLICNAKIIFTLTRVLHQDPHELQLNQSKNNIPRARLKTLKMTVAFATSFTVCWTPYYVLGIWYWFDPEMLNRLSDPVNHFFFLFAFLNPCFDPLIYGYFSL
Procedure: Functional Reporter Gene Assay
For performing functional tests, stable, transfixed LTK cells carrying GnRH receptors (ATCC No. CCL-1.3) with a heterologous expression of cAMP responsible elements as well as a CMV minimal promoter-driven luciferase reporter gene are used.
(§1) The cells are cultivated in DMEM medium (Invitrogen Life Technologies, Germany) with penicillin (100 I.U./ml), streptomycin (0.1 mg/ml) and glutamine (0.01 mol/l) and 10% fetal calf serum (FCS; Invitrogen Life Technologies, Germany) on plastic tissue culture plates (Nunc, Germany, 245×245×20 mm).
80% confluent cell culture plates are washed twice with 50 ml of phosphate-buffered salt solution (PBS) and subsequently dissolved with trypsin EDTA solution (Invitrogen Life Technologies, Germany). The cells are pelletized by centrifuging at 200×g for 5 minutes in a laboratory centrifuge (Kendro, Germany). The cell pellet is resuspended in 3 ml of assay medium (Invitrogen Life Technologies, Germany) with penicillin (100 I.U./ml), streptomycin (0.1 mg/ml) and glutamine (0.01 mol/l) and 10% fetal calf serum (FCS; Invitrogen Life Technologies, Germany), and the cell count is determined by means of trypan blue staining in a Neubauer counting chamber. The cell suspension is set with assay medium to a concentration of 1×10^4 Z/100 μl. The cells are suspended on white 96-well microtiter plates (Costar, Germany) and incubated for 18 hours in an incubator.
To perform tests, test substances are diluted as 10 mmol DMSO solutions in assay medium to 6× the final concentration used. 25 μl of the test substance is added to 100 μl cells and incubated for 60 minutes at 37° C., 5% CO2. Then, the addition of triptorelin (D-Trp6-GnRH)/Rolipram solution (6 mmol/6 mmol) and a renewed incubation are carried out for 6 hours at 37° C., 5% CO2.
After incubation, the addition of 50 μl of lysis/detection buffer (LucLite, PE Life Science) and the measurement in a Lumistar luminometer (BMG Labtechnologies GmBH, Germany) are carried out.
The evaluation of the samples is carried out after calculating the inhibition in comparison to untreated stimulated cells, after removal of non-stimulated controls, by means of GraphPad Prism (GraphPad Software, Inc., USA) or alternately by means of OMMM (Accelrys, Germany) Software.

GnRH receptor [2] = biological target: T1, GnRH receptor; assay: Receptor binding assay with 125I-triptorelin on transfected LTK cells; settings: competition with 125I-triptorelin, whole LTK cells, 60 minutes at 37° C.
Procedure: ^125I-Triptorelin [^125I-(D)-Trp6-GnRH] is ordered from the Biotrend Company (Cologne, Germany). The specific activity in each case is 2.13 Ci/mmol. All other chemicals are ordered from commercial sources at the highest available purity.
as §1, with “Transfixed LTK′” for “The”, “cells (ATCC No. CCL-11.3)” for “cells”, “nun).” for “mm).”
80% confluent cell culture plates are washed twice with 50 ml of phosphate-buffered salt solution (PBS) and dissolved below with 0.01 M EDTA solution. The cells are pelletized by centrifuging at 200×g for 5 minutes in a laboratory centrifuge (Kendro, Germany). The cell pellet is resuspended in 3 ml of binding medium (DMEM; 10 mmol of Hepes; 0.5% BSA; 0.1% NaN3; 1 g/l of bacitracin (freshly added, stock 100×); 0.1 g/l of SBTI (freshly added, stock 1000×), and the cell count is determined by means of trypan blue staining in a Neubauer counting chamber. The cell suspension is set with binding medium to a concentration of 5×10^5 Z/0.05 ml.
Binding tests for competition curves are performed as duplicates. The test substances are used as 10 mmol DMSO solutions. They are diluted with binding medium to 4× the final concentration used. 25 μl of the substance dilution is mixed with 25 μl of tracer solution (^125I-triptorelin). The concentration of tracer is set to about 50,000 cpm (measured in Cobra II, γ-counter, PE Liefe Science, Germany) in the final reaction volume of 100 μl.
200 μl of a silicone/paraffin oil mixture (84%:16%) is introduced into 650 μl pointed-bottom tubes (Roth, Germany). 50 μl of the cell suspension is pipetted thereto and subsequently 50 μl of the test substance/tracer mixture. The tubes are sealed and incubated for 60 minutes at 37° C. in an incubator that rotates via the top. After incubation, the samples are centrifuged in a centrifuge (Kendro, Germany) at 900 rpm and subsequently flash-frozen in liquid N2. The tip with the cell pellet is cut off and inserted into the prepared counting tube (Roth, Germany). The remainder of the pointed-bottom tube with the remaining supernatant is also inserted into a counting tube. The measurement is made in a γ-counter for 1 minute/sample.
The evaluation of the samples is carried out after calculating the specific bond in comparison to untreated cells, after the unspecific bond (excess unlabeled ligand, 1 mmol) is removed by means of GraphPad Prism (GraphPad Software Inc., USA).

CC[C@H](C)[C@H](NC(=O)OCc1ccccc1)C(=O)N[C@]1(C(=O)N[C@H](C(N)=O)C(C)C)CCc2[nH]c3c(F)cc(F)cc3c2C1 [Compound 293, Phenylmethyl [(1S,2S)-1-[[[(3R)-3-[[[(1S)-1-(aminocarbonyl)-2-methylpropyl]amino]carbonyl]-6,8-difluoro-2,3,4,9-tetrahydro-1H-carbazol-3-yl]amino]car-bonyl]-2-methylbutyl]carbamate]
EC50 (GnRH receptor [1]): 762 nM
EC50 (GnRH receptor [2]): 332 nM

CC[C@H](C)[C@H](NC(=O)[C@@]1(NC(=O)[C@@H](NC(=O)OCc2ccccc2)[C@@H](C)CC)CCc2[nH]c3c(OC)cccc3c2C1)C(N)=O [Compound 294, Phenylmethyl [(1S,2S)-1-[[[(3R)-3-[[[(1S,2S)-1-(aminocarbonyl)-2-methylbutyl]amino]carbonyl]-8-methoxy-2,3,4,9-tetrahydro-1H-carbazol-3-yl]amino]car-bonyl]-2-methylbutyl]carbamate]
EC50 (GnRH receptor [1]): 89 nM
EC50 (GnRH receptor [2]): 36 nM

CC[C@H](C)[C@H](NC(=O)[C@@]1(NC(=O)[C@@H](NC(=O)OCc2ccccc2)[C@@H](C)CC)CCc2[nH]c3c(Cl)cc(Cl)cc3c2C1)C(N)=O [Compound 295, Phenylmethyl [(1S,2S)-1-[[[(3R)-3-[[[(1S,2S)-1-(aminocarbonyl)-2-methylbutyl]amino]carbonyl]-6,8-dichloro-2,3,4,9-tetrahydro-1H-carbazol-3-yl]amino]car-bonyl]-2-methylbutyl]carbamate]
EC50 (GnRH receptor [1]): 7 nM
EC50 (GnRH receptor [2]): 18 nM

CC[C@H](C)[C@H](NC(=O)OCc1ccccc1)C(=O)N[C@]1(C(=O)N[C@@H](CC(C)C)C(N)=O)CCc2[nH]c3c(Cl)cc(Cl)cc3c2C1 [Compound 296, Phenylmethyl [(1S,2S)-1-[[[(3R)-3-[[[(1S)-1-(aminocarbonyl)-3-methylbutyl]amino]carbonyl]-6,8-dichloro-2,3,4,9-tetrahydro-1H-carbazol-3-yl]amino]car-bonyl]-2-methylbutyl]carbamate]
EC50 (GnRH receptor [1]): 14 nM
EC50 (GnRH receptor [2]): 22 nM

CC[C@H](C)[C@H](NC(=O)OCc1ccccc1)C(=O)N[C@]1(C(=O)N[C@@H](CC2CCCCC2)C(N)=O)CCc2[nH]c3c(Cl)cc(Cl)cc3c2C1 [Compound 297, Phenylmethyl [(1S,2S)-1-[[[(3R)-3-[[[(1S)-1-(aminocarbonyl)-2-cyclohexylethyl]amino]carbonyl]-6,8-dichloro-2,3,4,9-tetrahydro-1H-carbazol-3-yl]amino]car-bonyl]-2-methylbutyl]carbamate]
EC50 (GnRH receptor [1]): 284 nM
EC50 (GnRH receptor [2]): 482 nM

CC[C@H](C)[C@H](NC(=O)OCc1ccccc1)C(=O)N[C@]1(C(=O)N[C@@H](CCc2ccccc2)C(N)=O)CCc2[nH]c3c(Cl)cc(Cl)cc3c2C1 [Compound 299, Phenylmethyl [(1S,2S)-1-[[[(3R)-3-[[[(1S)-1-(aminocarbonyl)-3-phenylpropyl]amino]carbonyl]-6,8-dichloro-2,3,4,9-tetrahydro-1H-carbazol-3-yl]amino]car-bonyl]-2-methylbutyl]carbamate]
EC50 (GnRH receptor [1]): 1500 nM
EC50 (GnRH receptor [2]): 1310 nM

CCC(C)[C@H](NC(=O)[C@@]1(NC(=O)[C@H](CC2CCCCC2)NC(=O)OCc2ccccc2)CCc2[nH]c3c(Cl)cc(Cl)cc3c2C1)C(N)=O (stereo partly drawn) [Compound 300, Phenylmethyl [(1S,2S)-1-[[[(3R)-3-[[[(1S)-1(aminocarbonyl)-2-methylbutyl]amino]carbonyl]-6,8-dichloro-2,3,4,9-tetrahydro-1H-carbazol-3-yl]amino]car-bonyl]-2-cyclohexylmethyl]-carbamate]
EC50 (GnRH receptor [1]): 17 nM
EC50 (GnRH receptor [2]): 23 nM

CC[C@H](C)[C@H](NC(=O)[C@@]1(NC(=O)[C@@H](NC(=O)OCc2ccccc2)[C@@H](C)CC)CCc2[nH]c3c(Cl)cc(Cl)cc3c2C1)C(=O)O [Compound 301, Phenylmethyl [(1S,2S)-1-[[[(3R)-3-[[[(1S,2S)-1-(carboxy)-2-methylbutyl]amino]carbonyl]-6,8-dichloro-2,3,4,9-tetrahydro-1H-carbazol-3-yl]amino]car-bonyl]-2-methylbutyl]carbamate]
EC50 (GnRH receptor [1]): 176 nM
EC50 (GnRH receptor [2]): 538 nM

CC[C@H](C)[C@H](NC(=O)[C@@]1(NC(=O)[C@H](Cc2ccc(O)cc2)NC(=O)OCc2ccccc2)CCc2[nH]c3c(Cl)cc(Cl)cc3c2C1)C(N)=O [Compound 302, Phenylmethyl [(1S)-1-[[[(3R)-3-[[[(1S,2S)-1-(aminocarbonyl)-2-methylbutyl]amino]carbonyl]-6,8-dichloro-2,3,4,9-tetrahydro-1H-carbazol-3-yl]amino]car-bonyl]-2-(4-hydroxyphenyl)-ethyl]carbamate]
EC50 (GnRH receptor [1]): 324 nM
EC50 (GnRH receptor [2]): 475 nM

CC[C@H](C)[C@H](NC(=O)[C@@]1(NC(=O)[C@H](CCc2ccccc2)NC(=O)OCc2ccccc2)CCc2[nH]c3c(Cl)cc(Cl)cc3c2C1)C(N)=O [Compound 304, Phenylmethyl [(1S)-1-[[[(3R)-3-[[[(1S,2S)-1-(aminocarbonyl)-2-methylbutyl]amino]carbonyl]-6,8-dichloro-2,3,4,9-tetrahydro-1H-carbazol-3-yl]amino]car-bonyl]-3-phenylpropyl]carbamate]
EC50 (GnRH receptor [1]): 18 nM
EC50 (GnRH receptor [2]): 38 nM
